# Source: publication PMC6672714 (Frontiers in Physiology, 2019)
# “Also recorded” adds a separate entry of the source. Read-outs that look alike come from different tables or passages of the source. No end group written: not given here.
# Columns and labels:
# [1] = tested on: cultured chick pituitary cells (GnRH1-induced CART mRNA); assay type: cell-based, chicken; conditions: GnRH1 10 nM, 24 h, N = 4
# Protocol: (§1) As described in our recent studies ([Huang et al., 2014]; [Mo et al., 2015]), anterior pituitaries collected from 1-week-old chicks were sliced and digested by 0.25% trypsin at 37°C for 20 min. The dispersed pituitary cells were cultured at a density of 5 × 10^5 cells/well in Medium 199 supplemented with 15% fetal bovine serum in a Corning Cell BIND 48-well plates (Corning, Tewksbury, MA) at 37°C with 5% CO2. After 24-h culture, the medium was replaced with serum-free M199 medium and the cells were treated with chicken GnRH1/GnRH2 for the duration (12–48 h) or with increasing doses (0.1–100 nM) of each peptide. The total RNA was then extracted from cultured pituitary cells and the expression of CART and β-actin assayed by qPCR.
# “ND” indicates no statistical difference between the two groups. Each data point represents mean ± SEM of four replicates (N = 4). ^**p < 0.01 vs. control; ^#p < 0.01 vs. GnRH1 treatment (in the absence of drug). […] Total ERK2 in cell lysates was also examined and used as internal controls. Note: only a single band for pERK2 or total ERK2 (42 kDa) was detected in cell lysate, because ERK1 gene is lost in chicken genome ([Gerilechaogetu et al., 2009]). The representative sets of independent experimental duplicates are shown here.
# “ND” indicates no statistical difference between the two groups. Each data point represents mean ± SEM of four replicates (N = 4). ^**p < 0.01 vs. control. […] The β-actin in cell lysates were also examined and used as internal controls. The representative sets of independent experimental duplicates are shown here.
# chicken GnRHR1 [2] = experiment: pGL3-CRE-luciferase reporter, cAMP/PKA signaling pathway, CHO cells expressing chicken GnRHR1; assay type: cell-based; conditions: four replicates
# Source text: (§2) Based on the reported cDNA sequences of chicken GnRHR1 and GnRHR2 (accession nos.: NM_204653; NM_001012609) ([Sun et al., 2001]; [Shimizu and Bedecarrats, 2006]), gene-specific primers were used to amplify the open reading frame from adult chicken anterior pituitaries using high-fidelity Taq DNA polymerase (TOYOBO, Japan). The amplified PCR products were cloned into the pcDNA3.1 (+) expression vector (Invitrogen) and sequenced. According to our previously established methods, the signaling property of each receptor was examined in Chinese hamster ovary (CHO) cells using pGL3-NFAT-RE-luciferase ([Wang et al., 2012]), pGL4-SRE-luciferase ([Mo et al., 2015]), and pGL3-CRE-luciferase reporter systems ([Wang et al., 2007]).
# (§3) Although two GnRH receptors (GnRHR1 and GnRHR2) have been identified in chickens ([Sun et al., 2001]; [Shimizu and Bedecarrats, 2006]; [Joseph et al., 2009]), their downstream signaling pathways have not been fully characterized.
# (§4) Figure 5 Activation of chicken GnRHR1 or GnRHR2 expressed in CHO cells by chicken GnRH1 or GnRH2, monitored by pGL3-NFAT-RE-luciferase (A,D), pGL4-SRE-luciferase (B,E), and pGL3-CRE-luciferease (C,F) reporter systems. […] Each data point represents mean ± SEM of four replicates (N = 4).
# [3] = tested on: cultured chick pituitary cells (CART mRNA); experiment: CART mRNA expression in cultured chick pituitary cells, qPCR; assay type: cell-based, chicken; conditions: N = 4
# Source text: Chicken anterior pituitaries were collected either for cell culture, or for total RNA extraction. Total RNA was extracted from chicken tissues or cultured pituitary cells using RNAzol (Molecular Research Center, Cincinnati, OH) and reversely transcribed using M-MLV reverse transcriptase (TaKaRa). Reverse transcription (RT) samples were then used for quantitative real-time PCR (qPCR) assays to investigate the mRNA expression of target genes, as described in our recent studies ([Cai et al., 2015]; [Mo et al., 2015]).
# as §1
# The data were analyzed by the Student’s t-test (between two groups) or by one-way ANOVA followed by the Dunnett test in GraphPad Prism 5 (GraphPad Software, San Diego, CA). To validate our results, all experiments were repeated at least three times.
# The mRNA levels of CART were normalized by β-actin and expressed as the percentage of respective controls. Each value represents the mean ± SEM of four replicates (N = 4). ^*p < 0.05, ^**p < 0.01 vs. respective control. (E) RT-PCR detection of GnRHR2 expression in cultured chick pituitary cells (three replicates). RT was performed in the presence (+) or absence (−) of reverse transcriptase. Parallel PCR of β-actin was performed to serve as an internal control.
# chicken GnRHR2 [4] = experiment: pGL3-CRE-luciferase reporter, cAMP/PKA signaling pathway, CHO cells expressing chicken GnRHR2; assay type: cell-based; conditions: four replicates
# Source text: as §2, §3, §4
# chicken GnRHR2 [5] = experiment: pGL4-SRE-luciferase reporter, MAPK/ERK signaling pathway, CHO cells expressing chicken GnRHR2; assay type: cell-based; conditions: four replicates
# Source text: as §2, §3, §4
# chicken GnRHR1 [6] = experiment: three cell-based luciferase reporter assays, GnRHR1 (qualitative); conditions: GnRHR1, CHO cells, calcium, MAPK/ERK and cAMP/PKA reporters
# Source text: as §2, §3, §4
# chicken GnRHR2 [7] = experiment: three cell-based luciferase reporter assays, GnRHR2 (qualitative)
# Source text: as §2, §3, §4
# [8] = tested on: intact anterior pituitaries (CART secretion); experiment: CART peptide secretion from intact anterior pituitaries incubated in vitro, Western blot; assay type: cell-based, chicken; conditions: 4 h, intact chick pituitaries, N = 3
# Protocol: As described in our recent study ([Huang et al., 2014]), the intact anterior pituitaries collected from 1-week-old male chicks were washed with PBS and placed on a 48-well plate (NUNC) supplemented with 400 μl serum-free Medium 199 (Invitrogen). After 1-h incubation at 37°C, the medium was replaced by 300 μl serum-free Medium 199 containing different concentrations of chicken GnRH1 or GnRH2 (0.1–100 nM) and incubated for 4 h. […] Parallel blotting of β-actin and CART in pituitary tissue lysates was also conducted.
# The intracellular CART (iCART) and β-actin levels in the pituitary tissue lysate were also examined in parallel. […] Each data point represents mean ± SEM of three replicates (N = 3). ^*p < 0.05; ^**p < 0.01 vs. respective control. […] One representative set of Western blot is shown at the top of each graph.
# chicken GnRHR1 [9] = experiment: pGL3-NFAT-RE-luciferase reporter, calcium signaling pathway, CHO cells expressing chicken GnRHR1; assay type: cell-based; conditions: four replicates
# Source text: as §2, §3, §4
# chicken GnRHR2 [10] = experiment: pGL3-NFAT-RE-luciferase reporter, calcium signaling pathway, CHO cells expressing chicken GnRHR2; assay type: cell-based; conditions: four replicates
# Source text: as §2, §3, §4
# chicken GnRHR1 [11] = experiment: pGL4-SRE-luciferase reporter, MAPK/ERK signaling pathway, CHO cells expressing chicken GnRHR1; assay type: cell-based; conditions: four replicates
# Source text: as §2, §3, §4
# [12] = tested on: intact pituitaries (GnRH1-induced CART secretion); experiment: inhibition of GnRH1-induced CART secretion in intact pituitaries, Western blot; assay type: cell-based, chicken; conditions: GnRH1 5 nM, 4 h, N = 3
# Protocol: As described in our recent study ([Huang et al., 2014]), the intact anterior pituitaries collected from 1-week-old male chicks were washed with PBS and placed on a 48-well plate (NUNC) supplemented with 400 μl serum-free Medium 199 (Invitrogen). After 1-h incubation at 37°C, the medium was replaced by 300 μl serum-free Medium 199 containing different concentrations of chicken GnRH1 or GnRH2 (0.1–100 nM) and incubated for 4 h.
# One representative set of Western blotting is shown at the bottom.
compound,measurement,setting,value
CN([C@@H](Cc1ccc(OS(=O)(=O)c2cccc3cnccc23)cc1)C(=O)N1CCN(c2ccccc2)CC1)S(=O)(=O)c1cccc2cnccc12 [KN62],effect on GnRH1-induced CART mRNA expression,[1]; KN62 5 μM,could inhibit GnRH1-induced CART mRNA expression
Cl.c1ccc(C2CCCC2NC2=NCCCCCCCCCCC2)cc1 (stereo not drawn) [MDL12330A],effect on GnRH1-induced CART mRNA expression,[1]; MDL12330A 20 μM,could abolish GnRH1-induced CART expression
"GnRH2: chicken gonadotropin-releasing hormone 2, synthesized using solid-phase Fmoc chemistry (QHWSHGWYPG; not fully specified; ends and bridges not checked; UniProt P68072 1-10, looked up)",EC50,chicken GnRHR1 [2],690 pM
same,"effect on CART mRNA expression, time and dose dependence","[3]; 10 nM time course or 0–100 nM for 48 h, qPCR",induce CART expression in time- and dose-dependent manners
same,EC50,chicken GnRHR2 [4],270 pM
same,EC50,chicken GnRHR2 [5],2840 pM
same,activation of GnRHR1 (luciferase activity),chicken GnRHR1 [6],stimulate the luciferase activities dose-dependently; also recorded: potently activated by GnRH2
same,relative potency at GnRHR2,"chicken GnRHR2 [7]; GnRH2 compared with GnRH1, GnRHR2, CHO cells",slightly more potent than GnRH1
same,activation of GnRHR2 (luciferase activity),"chicken GnRHR2 [7]; GnRHR2, CHO cells, calcium, MAPK/ERK and cAMP/PKA reporters",stimulate the luciferase activities dose-dependently; also recorded: potently activated by both GnRH1 and GnRH2
same,secretion of mature CART peptide,[8]; 0–100 nM,potently stimulated the secretion of mature CART peptide
same,"minimal effective concentration, CART secretion",[8],1 nM
same,EC50,chicken GnRHR1 [9],390 pM
same,EC50,chicken GnRHR2 [10],260 pM
same,EC50,chicken GnRHR1 [11],3100 pM
"C=C[C@@]1(C)CC(=O)[C@]2(O)[C@@]3(C)[C@@H](O)CCC(C)(C)[C@@H]3[C@H](O)[C@H](OC(C)=O)[C@@]2(C)O1 [forskolin, reference compound]",effect on CART mRNA expression,"[3]; forskolin 2 μM, 24 h",could mimic GnRH1 action on CART expression
COC(=O)C1=C(C)NC(C)=C(C(=O)OC)C1c1ccccc1[N+](=O)[O-] [nifedipine],effect on GnRH1-induced CART mRNA expression,[1]; nifedipine 5 μM,could inhibit GnRH1-induced CART mRNA expression
same,effect on GnRH1-induced CART secretion,[12]; nifedipine 5 μM,significantly inhibited
C/C=C(/C)C(=O)O[C@H]1C(C)=C2[C@H]([C@@H]1OC(=O)CCCCCCC)[C@@](C)(OC(C)=O)C[C@H](OC(=O)CCC)[C@@]1(O)[C@H]2OC(=O)[C@@]1(C)O [thapsigargin],effect on GnRH1-induced CART mRNA expression,[1]; thapsigargin 100 nM,could inhibit GnRH1-induced CART mRNA expression
Clc1ccc(C(c2ccc(Cl)cc2)n2cc[n+](CC(OCc3ccc(Cl)cc3Cl)c3ccc(Cl)cc3Cl)c2)cc1 (stereo not drawn) [calmidazolium],effect on GnRH1-induced CART mRNA expression,[1]; calmidazolium 1 μM,could inhibit GnRH1-induced CART mRNA expression
"NCCOB(c1ccccc1)c1ccccc1 [2-APB, 2-aminoethoxydiphenyl borate]",effect on GnRH1-induced CART secretion,[12]; 2-APB 100 μM,significantly inhibited
COc1ccc2c(c1)CC[C@@H]1[C@@H]2CC[C@]2(C)[C@@H](NCCCCCCN3C(=O)C=CC3=O)CC[C@@H]12 [U73122],effect on GnRH1-induced CART mRNA expression,[1]; U73122 20 μM,could inhibit GnRH1-induced CART mRNA expression
same,effect on GnRH1-induced CART secretion,[12]; U73122 20 μM,significantly inhibited
COc1c(C[C@@H](C)OC(=O)Oc2ccc(O)cc2)c2c3c(C[C@@H](C)OC(=O)c4ccccc4)c(OC)c(=O)c4c(O)cc(OC)c(c5c(OC)cc(O)c(c1=O)c52)c43 [calphostin C],effect on GnRH1-induced CART mRNA expression,[1]; calphostin C 200 nM,could inhibit GnRH1-induced CART mRNA expression
COc1cccc(-c2cc(=O)c3ccccc3o2)c1N [PD98059],effect on GnRH1-induced CART mRNA expression,[1]; PD98059 100 μM,could inhibit GnRH1-induced CART mRNA expression
